Data reported in patent US20070232492A1, “Herbicidal Composition” (Ishihara Sangyo Kaisha, LTD., priority 2004, published 2007).
Read-outs that look alike come from different tables or passages of the source.

How the values were obtained:
Assay type in all cases: in vivo
[1] = test system: barnyardgrass (Echinochloa oryzicola vasing); assay: Growth inhibition of barnyardgrass in paddy soil pots, application under submerged condition, visual rating (observed value) and Colby expected value; details: Echinochloa oryzicola, soil, read-out: Growth inhibition rate (%) Observed; for inhibition at 2.3 g/ha: 0.023 g/a; for inhibition at 4.5 g/ha: 0.045 g/a
Summary of the method: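 Barnyardgrass (Echinochloa oryzicola vasing) seeds were sown in paddy field soil in 1/10,000 are pots and kept irrigated at a water depth of 3.5 cm. Wettable powders of the active ingredients were diluted with water and applied under submerged conditions at the prescribed amounts. Growth was visually scored from 0% (as untreated) to 100% (complete kill), and expected values were calculated with Colby's formula.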

[2] = test system: flatsedge (Cyperus serotinus); assay: Growth inhibition of flatsedge (planted tubers) in paddy soil pots, application under submerged condition, visual rating and Colby expected value; details: Cyperus serotinus, soil, 696 h, 2.8 to 3.2 leaf stage, 29 days after application, read-out: Growth inhibition rate (%) Observed
Description: (§1) When the herbicidal activity in a case where two active ingredients are combined, is larger than the simple sum of the respective herbicidal activities of the two active ingredients (the expected activity), it is called a synergistic effect. The activity expected by the combination of two active ingredients can be calculated as follows (Colby S. R., “Weed”, vol. 15, p. 20-22, 1967). E=p+q−(p×q÷100) where p: growth inhibition rate when treated with x (g/a) of herbicide X,
(§2) q: growth inhibition rate when treated with y (g/a) of herbicide Y,
(§3) E: growth inhibition rate expected when treated with x (g/a) of herbicide X and y (g/a) of herbicide Y.
(§4) Namely, when the actual growth inhibition rate (observed value) is larger than the growth inhibition rate by the above calculation (expected value), the activity by the combination can be regarded as showing a synergistic effect.
(§5) Growth inhibition rate (%)=0% (equivalent to the non-treated area) to 100% (complete kill)
(§6) Paddy field soil was put into a 1/10,000 are pot, and tubers of flatsedge (Cyperus serotinus) were planted and left to stand under an irrigated condition with a water depth of 3.5 cm. When flatsedge reached 2.8 to 3.2 leaf stage, wettable powders of compound A2 and compound (B1.2) were, respectively, diluted with water and applied under submerged condition so that the active ingredients became the prescribed amounts, respectively. The state of growth was visually observed 29 days after application, and evaluation and calculation were carried out in the same manner as in the above Test Example 1.
Paddy field soil was put into a 1/3,000 are pot, and tubers of flatsedge (Cyperus serotinus) were planted and left to stand under an irrigated condition with a water depth of 3.5 cm. When flatsedge reached 4 leaf stage, a wettable powder of compound A2 and an emulsifiable concentrate of compound C4 were, respectively, diluted with water and applied under submerged condition so that the active ingredients became the prescribed amounts, respectively. The state of growth was visually observed 21 days after application, and the growth inhibition rate (%) evaluated in the same manner as in the above Test Example 1 (observed value) and the growth inhibition rate (%) calculated by the above-mentioned Colby method (expected value) are shown in Table 32.
as §6, with “2.5” for “2.8”, “3.0” for “3.2”, “A2, compound (D2.3)” for “A2”, “(B4.1)” for “(B1.2)”, “30” for “29”, “evaluated” for “evaluation and calculation were carried out”
as §6, with “2.5” for “2.8”, “3.0” for “3.2”, “A2, compound (D2.3)” for “A2”, “(B6.1)” for “(B1.2)”, “30” for “29”, “evaluated” for “evaluation and calculation were carried out”
Paddy field soil was put into a 1/10,000 are pot, and tubers of flatsedge (Cyperus serotinus) were planted and left to stand under an irrigated condition with a water depth of 3.5 cm. When flatsedge reached 2.5 to 3.0 leaf stage, wettable powders of compound A2, compound (D2.3) and compound (B8.1) were, respectively, diluted with water and applied under submerged condition so that the active ingredients became the prescribed amounts, respectively. […]

[3] = Growth inhibition of mixed broadleaf paddy weeds in paddy soil pots, application under submerged condition, visual rating and Colby expected value; details: mixed broadleaf paddy weeds, soil, 504 h; 0.12 g/a; false pimpernel one leaf-pair stage; 21 days after application; read-out: Growth inhibition rate (%) Observed
Description: as §1, §2, §3, §4, §5
Paddy field soil was put into a 1/1,700 are pot, and mixed seeds of false pimpernel (Lindernia pyxidaria), abunome (Dopatrium junceum), long stem waterwort (Elatine triandra SCHK.) and toothcup (Rotala india) were sown and left to stand under an irrigated condition with a water depth of 3.5 cm. When false pimpernel reached one leaf-pair stage, wettable powders of compound A2 and compound (B1.2) were, respectively, diluted with water and applied under submerged condition so that the active ingredients became the prescribed amounts, respectively. The state of growth was visually observed 21 days after application, and evaluation and calculation were carried out in the same manner as in the above Test Example 1.
Paddy field soil was put into a 1/1,700 are pot, and mixed seeds of false pimpernel (Lindernia pyxidaria), abunome (Dopatrium junceum), long stem waterwort (Elatine triandra SCHK.) and toothcup (Rotala india) were sown and left to stand under an irrigated condition with a water depth of 3.5 cm. When false pimpernel reached two leaf-pair stage, a wettable powder of compound A2 and an emulsifiable concentrate of compound (B8.1) were, respectively, diluted with water and applied under submerged condition so that the active ingredients became the prescribed amounts, respectively. The state of growth was visually observed 22 days after application, and evaluation and calculation were carried out in the same manner as in the above Test Example 1.

[4] = 504 h, 3.0 to 3.3 leaf stage, 21 days after application
[5] = 528 h, 2.5 to 3.0 leaf stage, 22 days after application

COc1cc(OC)nc(NC(=O)NS(=O)(=O)c2c(-c3nnn(C)n3)cnn2C)n1 [Compound (B1.2), azimsulfuron]
inhibition at 2.3 g/ha [1, 4]: 0%
inhibition at 4.5 g/ha [1, 4]: 7%
inhibition at 2.3 g/ha [1, 5]: 0%
inhibition at 4.5 g/ha [1, 5]: 53%
inhibition at 3 g/ha ([1]; 696 h, 0.03 g/a, 2.4 to 3.2 leaf stage, 29 days after application, Test Example 45): 30%
inhibition at 6 g/ha ([1]; 696 h, 0.06 g/a, 2.4 to 3.2 leaf stage, 29 days after application, Test Example 45): 57%
inhibition at 7.5 g/ha ([1]; 696 h, 0.075 g/a, 2.4 to 3.2 leaf stage, 29 days after application, Test Example 45): 60%
inhibition at 1.25 g/ha ([2]; 0.0125 g/a): 20%
inhibition at 1.5 g/ha ([2]; 0.015 g/a): 33%
inhibition at 1.88 g/ha ([2]; 0.0188 g/a): 58%
inhibition at 12 g/ha [3]: 60%
